The values that follow come from patent publication US20240116918A1, “SUBSTITUTED TRICYCLIC COMPOUND AS PRMT5 INHIBITOR AND USE THEREOF” (NANJING SANHOME PHARMACEUTICAL CO., LTD., priority 2019, published 2024).

The test system of data set [1] is MDA-MB-468 cells. In words: In vitro cell activity, MDA-MB-468 cells, CCK-8. Conditions: Homo sapiens, MDA-MB-468, 168 h, read-out: IC50 MDA-MB-468 Cell, triple negative breast cancer cells, 7 days. Type of data set: cell-based. The method, then: Test compounds: the compounds of the present invention prepared in the above example. Each compound was formulated into a 10 mM stock solution with DMSO, and finally diluted into 8 concentrations for detection, with the final concentrations being 33333.00 nM, 6666.60 nM, 1333.32 nM, 266.66 nM, 53.33 nM, 10.67 nM, 2.13 nM, and 0.43 nM for experiments in Z-138 cells.
After thawing, the cryovial was taken out, and sterilized with an alcohol cotton ball, after which the cap was unscrewed. The cell fluid was drawn and injected into a centrifuge tube. 1 mL of L-15 medium containing 10% FBS was added, and mixed uniformly. The tube was placed in a centrifuge, and centrifuged at 1000 rpm for 5 min. Afterwards, the supernatant was discarded, and complete medium was added. The mixture was pipetted repeatedly until the cells were completely dispersed and resuspended. The mixture was inoculated in a petri dish at an appropriate concentration, and cultured in a CO2-free incubator at 37° C., and 95% humidified air.
The medium (Leibovitz's L-15 Medium+10% FBS+1% penicillin-streptomycin) was transferred to a 15 mL centrifuge tube, and centrifuged at 1000 rpm for 5 min. The supernatant was removed. The cells were resuspended in complete medium, and inoculated in a petri dish at the desired density. The dish was placed in a CO2-free incubator at 37° C., and 95% humid air. The culture medium was changed every 2-3 days or the passage was carried out, depending on the cell growth.
After passage, MDA-MB-468 cells were resuspended in complete medium at the corresponding density, 2000 cells/well, and inoculated in a 96-well culture plate. The wells at the outer circumference were filled with 200 μL PBS to prevent the culture conditions of the inner plate wells from being too different from each other due to the faster evaporation of medium at the edge. The leftmost column of the 60 inner wells were blank wells, which were not added with cells, but filled with equal volume of PBS. The remaining 54 wells were subjected to cell plating with a multichannel pipette, to each well was added 100 μL. The plate was placed in a CO2-free incubator and cultured at 37° C. for 24 h. […]
The first column of PBS was used as a blank control well, and 100 μL of CCK-8 was added synchronously thereto. […] The optimal detection time was determined according to the shade of color developed by CCK-8 (the optimal OD value for the DMSO group was about 1.0). […] The microplate reader software was opened, the detection parameters were adjusted, and the absorbance at 450 nm (OD value) was detected. The cover of the culture plate was removed, and the culture plate was directly placed horizontally in the plate groove to start reading. After the reading was finished, the program was saved, and the data was exported. […]

The subject of data set [2] is ex vivo heart. Nature of the data set: Ex vivo heart experiments, QT interval.
Data set [3] deals with hERG potassium channel (Homo sapiens (Human), UniProt Q12809). In words: Electrophysiological manual patch-clamp detection of effect on hERG potassium channel. Background: The patch-clamp technique gives a direct electrical read-out from membranes.
Sequence of hERG potassium channel (Q12809 whole entry): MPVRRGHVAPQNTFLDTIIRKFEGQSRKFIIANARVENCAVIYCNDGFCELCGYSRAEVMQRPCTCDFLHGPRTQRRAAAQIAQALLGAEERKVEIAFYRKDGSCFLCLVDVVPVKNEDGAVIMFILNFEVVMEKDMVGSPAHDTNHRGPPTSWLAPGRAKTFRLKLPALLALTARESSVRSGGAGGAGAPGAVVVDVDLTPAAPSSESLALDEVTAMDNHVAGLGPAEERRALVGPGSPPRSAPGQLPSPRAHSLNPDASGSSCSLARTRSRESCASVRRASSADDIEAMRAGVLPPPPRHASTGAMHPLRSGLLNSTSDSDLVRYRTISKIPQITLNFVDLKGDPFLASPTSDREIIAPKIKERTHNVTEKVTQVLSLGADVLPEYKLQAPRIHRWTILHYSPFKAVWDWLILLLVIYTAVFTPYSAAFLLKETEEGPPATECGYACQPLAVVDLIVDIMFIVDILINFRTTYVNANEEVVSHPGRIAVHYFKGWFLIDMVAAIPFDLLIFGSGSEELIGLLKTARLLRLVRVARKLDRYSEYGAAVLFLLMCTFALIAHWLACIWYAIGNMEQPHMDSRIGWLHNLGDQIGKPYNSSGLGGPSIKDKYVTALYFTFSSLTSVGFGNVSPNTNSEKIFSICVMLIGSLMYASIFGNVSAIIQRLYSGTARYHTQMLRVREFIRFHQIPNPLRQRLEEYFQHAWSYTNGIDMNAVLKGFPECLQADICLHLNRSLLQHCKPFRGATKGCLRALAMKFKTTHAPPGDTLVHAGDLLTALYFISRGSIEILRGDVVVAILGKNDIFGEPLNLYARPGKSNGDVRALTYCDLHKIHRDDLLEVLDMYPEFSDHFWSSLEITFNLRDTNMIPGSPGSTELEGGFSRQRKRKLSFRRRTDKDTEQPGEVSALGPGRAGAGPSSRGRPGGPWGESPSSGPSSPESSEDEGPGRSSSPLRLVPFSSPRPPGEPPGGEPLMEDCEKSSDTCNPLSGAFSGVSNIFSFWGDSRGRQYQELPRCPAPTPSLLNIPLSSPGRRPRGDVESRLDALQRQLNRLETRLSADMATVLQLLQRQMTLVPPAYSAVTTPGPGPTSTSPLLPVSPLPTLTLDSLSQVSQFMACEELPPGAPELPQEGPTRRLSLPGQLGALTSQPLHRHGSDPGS
Protocol: Preparation of test solvents: preparation of extracellular fluid (mM): 137 NaCl, 4 KCl, 1.8 CaCl2, 1 MgCl2, 10 glucose and 10 HEPES (pH 7.4); preparation of intracellular fluid (mM): 130 KCl, 1 MgCl2, 5 EGTA, 5 MgATP and 10 HEPES (pH 7.2); preparation of negative control: extracellular fluid+0.3% DMSO; positive control: quinidine.
Compound treatment: The compound was weighed and dissolved in DMSO to prepare a 10 mM stock solution, which was diluted with DMSO to form secondary stock solutions with concentrations of 3.3, 1.1, 0.37 and 0.12 mM. 90 μL each of the stock solution and the secondary stock solutions was diluted into 30 mL of extracellular fluid for electrophysiological detection. The final concentrations of the compound were 30, 10, 3.3, 1.1 and 0.37 μM, and the final concentration of DMSO was 3:1000.
Stably transfected cell culture: The cell line was originated from HEK-293 cells overexpressing hERG potassium ion channel. […] The cells were cultured in an incubator at 37° C. and 5% CO2. When the cell density reaches 80% of the petri dish, the cells were first pre-washed with phosphate buffered saline (PBS), then digested with trypsin/EDTA for 2-3 min. Cell culture medium was added to stop the digestion. The cells were gently blown down and transferred to a centrifuge tube, and centrifuged at 1000 rpm for 3 min. The supernatant was discarded, cell culture medium was added, and the cells were mixed uniformly by gentle tapping. After that, the mixture was transferred to a petri dish for subculture, or the cells were dripped on a round glass slide and placed on a petri dish for the cells to adhere for experiments.
Experiments on electrophysiological manual patch-clamp system: The stably transfected cells were inoculated on a glass slide with a cell density lower than 50%, and cultured overnight. The experimental cells were transferred to a bath of about 1 mL embedded in an inverted microscope platform, and the extracellular fluid was perfused at a perfusion rate of 2.7 mL/min. After 5 minutes of stabilization, the experiment was started. Membrane currents were recorded using HEKA EPC-10 patch clamp amplifier and [sequence] acquisition system. All the experiments were performed at room temperature (22-24° C.). Electrodes were drawn straight using P-97 microelectrode drawing instrument (BF150-110-10) in the experiments. The inner diameter of the electrode was 1-1.5 mm, and the pipette resistance after filling with the inner liquid was 2-4 MΩ. The electrophysiological stimulation scheme of hERG potassium channel included: first setting the membrane voltage at −80 mV, applying a stimulation to the cells at +20 mV voltage for 2 s to activate the hERG potassium channel, and then repolarizing to −50 mV for 5 s to generate an outward tail current. The stimulation frequency was once every 15 s. The current value was the peak value of the tail current. The channel currents were recorded in the whole-cell recording mode. Firstly, the extracellular fluid was perfused (about 2 mL per minute) while recording was continued. When the current was stabilized (the current decay (Run-Down) was less than 5% within 5 minutes), the peak value of the tail current was the control current value. Then, the extracellular fluid containing the drug to be tested was perfused while the recording was continued until the inhibitory effect of the drug on the hERG current reached a steady state. At this time, the peak value of the tail current was the current value after drug addition. […]

The term IC50 denotes the concentration at which inhibition is half-maximal. For `CC(=O)N1CCC(Nc2cc(C(=O)NC[C@H](O)CN3CCc4ccccc4C3)ncn2)CC1` [Compound A, (S)-6-((1-Acetylpiperidin-4-yl)amino)-N-(3-(3,4-dihydroisoquinolin-2(1H)-yl)-2-hydroxypropyl)pyrimidine-4-carboxamide], in data set [1], the 50% inhibitory concentration (IC50) worked out at 116 nM.
As to `CC(=O)N1CCC(Nc2cc3c(cn2)C2(CC2)CN(C[C@H](O)CN2CCc4ccccc4C2)C3=O)CC1` [Example 1, (R)-7′-((1-acetylpiperidin-4-yl)amino)-2′-(3-(3,4-dihydroisoquinolin-2(1H)-yl)-2-hydroxypropyl)-2′,3′-dihydro-1′H-spiro[cyclopropane-1,4′-[2,6]naphthyridin]-1′-one], the IC50 in data set [1] came out at 11.6 nM; in data set [3], 5240 nM. In data set [2], the “effect on the QT interval” value is reported as “no effect on the QT interval”. For the same compound, the “inhibitory effect on the hERG potassium channel (in words)” value in data set [3] (conclusion from Table 4) is “weak inhibitory effect”.
On to `CC(=O)N1CCC(Nc2ccc3c(c2)C(=O)N(C[C@H](O)CN2CCc4ccccc4C2)CC32CC2)CC1` [Compound B, (R)-7′-((1-Acetylpiperidin-4-yl)amino)-2′-(3-(3,4-dihydroisoquinolin-2(1H)-yl)-2-hydroxypropyl)-2′,3′-dihydro-1′H-spiro[cyclopropane-1,4′-isoquinolin]-1′-one, reference compound], for which the IC50 came to 41.3 nM in data set [1] and 2710 nM in data set [3]. For the same compound, in data set [2], the “effect on the QT interval” value is “significant prolongation of the QT interval”.
For `CC(=O)N1CC2(CC(Nc3cc4c(cn3)C3(CC3)CN(C[C@H](O)CN3CCc5ccccc5C3)C4=O)C2)C1` [Example 2, (R)-7′-((2-acetyl-2-azaspiro[3.3]hept-6-yl)amino)-2′-(3-(3,4-dihydroisoquinolin-2(1H)-yl)-2-hydroxypropyl)-2′,3′-dihydro-1′H-spiro[cyclopropane-1,4′-[2,6]naphthyridin]-1-one], in that order: 7.35 nM, 15100 nM and “no effect on the QT interval”.
